Patent US12459943B2, “Crystalline solid forms of a BET inhibitor” (Incyte Corporation, priority 2016, dated 2025)

Experiments:
[1] = Stability of crystalline forms in aqueous suspension; assay type: physicochemical
Protocol: Recrystallization conducted in a mixture of tetrahydrofuran (THF), acetone, and n-heptane using similar procedures as above afford Form II of the crystalline Compound 1 drug substance was obtained. Both Form I and Form II have very sharp melting endotherm peaks on DSC, and the two forms are about one degree difference in peak melting temperature: 266.4° C. for Form I and 267.5° C. for Form II.

[2] = Relative stability and interconversion of crystalline forms in organic solvents; assay type: physicochemical

Compound	stability in aqueous suspension [1]	relative stability of the crystalline form in MeOH and acetone ([2]; MeOH and acetone)	interconversion of forms ([2]; mixture of methanol, acetone, and n-heptane, depending on solvent ratio, temperature, and time)	relative stability of the crystalline form in IPA ([2]; IPA)
CN1C(=O)C(C)(C)Oc2c(-c3cn(C)c(=O)c4[nH]ccc34)cc(S(C)(=O)=O)cc21 [Form I, 2,2,4-trimethyl-8-(6-methyl-7-oxo-6,7-dihydro-1H-pyrrolo[2,3-c]pyridin-4-yl)-6-(methylsulfonyl)-2H-benzo[b][1,4]oxazin-3(4H)-one]	stable in aqueous suspension	most stable form	could be interconverted to each other	–
CN1C(=O)C(C)(C)Oc2c(-c3cn(C)c(=O)c4[nH]ccc34)cc(S(C)(=O)=O)cc21 [Form II, 2,2,4-trimethyl-8-(6-methyl-7-oxo-6,7-dihydro-1H-pyrrolo[2,3-c]pyridin-4-yl)-6-(methylsulfonyl)-2H-benzo[b][1,4]oxazin-3(4H)-one]	–	–	–	more stable
